Biological target: T1, Norepinephrine transporter (Rattus norvegicus, UniProt Q9WTR4)
Assay: Inhibition of rat brain Norepinephrine transporter as accumulation of [3H]NE
Assay type: functional

T1 sequence (Q9WTR4 whole entry): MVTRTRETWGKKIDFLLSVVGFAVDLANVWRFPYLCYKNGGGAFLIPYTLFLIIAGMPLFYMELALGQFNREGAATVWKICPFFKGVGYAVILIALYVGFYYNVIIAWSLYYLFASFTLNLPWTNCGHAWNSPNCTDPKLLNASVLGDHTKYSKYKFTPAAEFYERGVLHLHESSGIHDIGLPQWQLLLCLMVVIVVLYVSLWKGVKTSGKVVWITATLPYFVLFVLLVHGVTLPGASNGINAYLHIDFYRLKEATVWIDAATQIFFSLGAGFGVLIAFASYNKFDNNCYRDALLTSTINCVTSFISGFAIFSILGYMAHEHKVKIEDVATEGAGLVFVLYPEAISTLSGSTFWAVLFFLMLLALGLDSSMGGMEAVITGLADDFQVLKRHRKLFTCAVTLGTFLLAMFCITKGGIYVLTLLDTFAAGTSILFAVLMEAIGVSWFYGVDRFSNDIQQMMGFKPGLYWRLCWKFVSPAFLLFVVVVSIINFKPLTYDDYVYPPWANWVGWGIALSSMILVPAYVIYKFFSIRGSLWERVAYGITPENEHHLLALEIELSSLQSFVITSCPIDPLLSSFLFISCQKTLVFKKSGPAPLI

Compound | IC50 [nM]
OC1CC(C(c2ccccc2)c2ccccc2)OCC1NCCc1ccc(F)cc1 (single isomer, unassigned) | 77.3
O[C@@H]1CO[C@H](C(c2ccccc2)c2ccccc2)C[C@H]1NCc1ccccc1 | 336
COc1ccc(CN[C@@H]2C[C@@H](C(c3ccccc3)c3ccccc3)OC[C@H]2O)cc1 | 765
OC1COC(C(c2ccccc2)c2ccccc2)CC1NCc1ccccc1 (single isomer, unassigned) | 3220
COc1ccc(CNC2CC(C(c3ccccc3)c3ccccc3)OCC2O)cc1 (single isomer, unassigned) | 1840
OC1CC(C(c2ccccc2)c2ccccc2)OCC1NCc1ccc(F)cc1 (single isomer, unassigned) | 1130
O[C@@H]1C[C@@H](C(c2ccccc2)c2ccccc2)OC[C@H]1NCc1ccc(F)cc1 | 13.3
COc1cc(CN[C@@H]2CO[C@H](C(c3ccccc3)c3ccccc3)C[C@H]2O)cc(OC)c1 | 108
O[C@@H]1C[C@@H](C(c2ccccc2)c2ccccc2)OC[C@H]1NCCc1ccc(F)cc1 | 439
COc1ccc(CN[C@@H]2CO[C@H](C(c3ccccc3)c3ccccc3)C[C@H]2O)c(OC)c1 | 115

Biological target: T2, Sodium-dependent dopamine transporter (Rattus norvegicus, UniProt P23977)
T2 sequence (P23977 whole entry): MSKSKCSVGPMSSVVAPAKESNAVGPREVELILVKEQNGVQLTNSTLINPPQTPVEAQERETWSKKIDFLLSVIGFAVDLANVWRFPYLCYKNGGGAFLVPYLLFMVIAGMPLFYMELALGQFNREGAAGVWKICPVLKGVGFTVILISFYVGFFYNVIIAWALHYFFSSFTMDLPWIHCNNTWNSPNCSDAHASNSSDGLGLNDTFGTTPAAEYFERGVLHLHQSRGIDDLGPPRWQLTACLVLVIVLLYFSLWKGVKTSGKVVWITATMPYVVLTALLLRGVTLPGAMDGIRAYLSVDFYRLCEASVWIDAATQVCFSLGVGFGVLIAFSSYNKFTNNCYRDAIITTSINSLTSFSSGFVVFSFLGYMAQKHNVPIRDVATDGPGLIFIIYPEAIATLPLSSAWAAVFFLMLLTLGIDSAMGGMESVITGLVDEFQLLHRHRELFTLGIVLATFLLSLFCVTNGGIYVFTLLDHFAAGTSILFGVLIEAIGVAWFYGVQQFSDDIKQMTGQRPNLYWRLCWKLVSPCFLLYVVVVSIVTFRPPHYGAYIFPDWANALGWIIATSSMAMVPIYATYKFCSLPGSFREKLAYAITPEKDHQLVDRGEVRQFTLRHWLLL
Assay: Inhibition of rat brain dopamine transporter as accumulation of [3H]DA
Assay type: functional

Compound | Ki [nM]
OC1CC(C(c2ccccc2)c2ccccc2)OCC1NCCc1ccc(F)cc1 (single isomer, unassigned) | 162
O[C@@H]1CO[C@H](C(c2ccccc2)c2ccccc2)C[C@H]1NCc1ccccc1 | 1940
O[C@@H]1C[C@@H](C(c2ccccc2)c2ccccc2)OC[C@H]1NCc1ccccc1 | 446
OC1CC(C(c2ccccc2)c2ccccc2)OCC1NCc1ccccc1 (single isomer, unassigned) | 253
COc1ccc(CN[C@@H]2C[C@@H](C(c3ccccc3)c3ccccc3)OC[C@H]2O)cc1 | 611
OC1COC(C(c2ccccc2)c2ccccc2)CC1NCc1ccccc1 (single isomer, unassigned) | 716
COc1ccc(CNC2CC(C(c3ccccc3)c3ccccc3)OCC2O)cc1 (single isomer, unassigned) | 1980
OC1CC(C(c2ccccc2)c2ccccc2)OCC1NCc1ccc(F)cc1 (single isomer, unassigned) | 327
O[C@@H]1C[C@@H](C(c2ccccc2)c2ccccc2)OC[C@H]1NCc1ccc(F)cc1 | 125
COc1cc(CN[C@@H]2CO[C@H](C(c3ccccc3)c3ccccc3)C[C@H]2O)cc(OC)c1 | 100
O[C@@H]1C[C@@H](C(c2ccccc2)c2ccccc2)OC[C@H]1NCCc1ccc(F)cc1 | 317
COc1ccc(CN[C@@H]2CO[C@H](C(c3ccccc3)c3ccccc3)C[C@H]2O)c(OC)c1 | 528

Biological target: T1, Norepinephrine transporter
Assay: Inhibition of rat brain Norepinephrine transporter as accumulation of [3H]-NE
Assay type: functional

Compound | Ki [nM]
OC1CC(C(c2ccccc2)c2ccccc2)OCC1NCCc1ccc(F)cc1 (single isomer, unassigned) | 71
O[C@@H]1CO[C@H](C(c2ccccc2)c2ccccc2)C[C@H]1NCc1ccccc1 | 296
COc1ccc(CN[C@@H]2C[C@@H](C(c3ccccc3)c3ccccc3)OC[C@H]2O)cc1 | 686
OC1COC(C(c2ccccc2)c2ccccc2)CC1NCc1ccccc1 (single isomer, unassigned) | 2890
COc1ccc(CNC2CC(C(c3ccccc3)c3ccccc3)OCC2O)cc1 (single isomer, unassigned) | 1700
OC1CC(C(c2ccccc2)c2ccccc2)OCC1NCc1ccc(F)cc1 (single isomer, unassigned) | 1050
O[C@@H]1C[C@@H](C(c2ccccc2)c2ccccc2)OC[C@H]1NCc1ccc(F)cc1 | 12.2
COc1cc(CN[C@@H]2CO[C@H](C(c3ccccc3)c3ccccc3)C[C@H]2O)cc(OC)c1 | 101
COc1ccc(CN[C@@H]2CO[C@H](C(c3ccccc3)c3ccccc3)C[C@H]2O)cc1 | 15.8
COc1ccc(CNC2COC(C(c3ccccc3)c3ccccc3)CC2O)cc1 (single isomer, unassigned) | 412
O[C@@H]1C[C@@H](C(c2ccccc2)c2ccccc2)OC[C@H]1NCCc1ccc(F)cc1 | 406
COc1ccc(CN[C@@H]2CO[C@H](C(c3ccccc3)c3ccccc3)C[C@H]2O)c(OC)c1 | 95

Biological target: T3, Sodium-dependent serotonin transporter (Rattus norvegicus, UniProt P31652)
T3 sequence (P31652 whole entry): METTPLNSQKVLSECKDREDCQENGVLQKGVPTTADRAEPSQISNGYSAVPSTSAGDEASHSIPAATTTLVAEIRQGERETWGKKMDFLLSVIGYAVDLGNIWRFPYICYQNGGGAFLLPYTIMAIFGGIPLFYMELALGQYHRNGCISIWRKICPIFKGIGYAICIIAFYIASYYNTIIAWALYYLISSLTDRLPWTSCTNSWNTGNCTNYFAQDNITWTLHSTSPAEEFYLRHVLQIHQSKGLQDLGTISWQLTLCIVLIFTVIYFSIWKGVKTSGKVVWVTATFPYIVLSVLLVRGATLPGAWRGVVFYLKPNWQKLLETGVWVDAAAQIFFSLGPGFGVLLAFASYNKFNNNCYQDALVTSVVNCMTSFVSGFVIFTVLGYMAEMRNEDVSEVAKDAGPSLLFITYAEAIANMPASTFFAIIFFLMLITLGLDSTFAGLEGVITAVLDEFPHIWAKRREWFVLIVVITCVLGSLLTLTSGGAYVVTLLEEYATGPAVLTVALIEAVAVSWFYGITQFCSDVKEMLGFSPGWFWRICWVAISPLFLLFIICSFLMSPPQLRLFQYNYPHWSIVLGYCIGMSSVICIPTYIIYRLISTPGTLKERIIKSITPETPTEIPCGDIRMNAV
Assay: Inhibition of rat brain Serotonin transporter as accumulation of [3H]5-HT
Assay type: functional

Compound | Ki [nM]
OC1CC(C(c2ccccc2)c2ccccc2)OCC1NCCc1ccc(F)cc1 (single isomer, unassigned) | 2650
O[C@@H]1CO[C@H](C(c2ccccc2)c2ccccc2)C[C@H]1NCc1ccccc1 | 9560
O[C@@H]1C[C@@H](C(c2ccccc2)c2ccccc2)OC[C@H]1NCc1ccccc1 | 707
OC1CC(C(c2ccccc2)c2ccccc2)OCC1NCc1ccccc1 (single isomer, unassigned) | 5500
COc1ccc(CN[C@@H]2C[C@@H](C(c3ccccc3)c3ccccc3)OC[C@H]2O)cc1 | 793
OC1COC(C(c2ccccc2)c2ccccc2)CC1NCc1ccccc1 (single isomer, unassigned) | 3970
COc1ccc(CNC2CC(C(c3ccccc3)c3ccccc3)OCC2O)cc1 (single isomer, unassigned) | 3420
OC1CC(C(c2ccccc2)c2ccccc2)OCC1NCc1ccc(F)cc1 (single isomer, unassigned) | 5000
O[C@@H]1C[C@@H](C(c2ccccc2)c2ccccc2)OC[C@H]1NCc1ccc(F)cc1 | 607
COc1cc(CN[C@@H]2CO[C@H](C(c3ccccc3)c3ccccc3)C[C@H]2O)cc(OC)c1 | 19.7
O[C@@H]1C[C@@H](C(c2ccccc2)c2ccccc2)OC[C@H]1NCCc1ccc(F)cc1 | 3210
COc1ccc(CN[C@@H]2CO[C@H](C(c3ccccc3)c3ccccc3)C[C@H]2O)c(OC)c1 | 20.8

Biological target: T2, Sodium-dependent dopamine transporter
Assay: Inhibition of rat brain Dopamine transporter uptake as [3H]DA accumulation
Assay type: functional

Compound | IC50 [nM]
OC1CC(C(c2ccccc2)c2ccccc2)OCC1NCCc1ccc(F)cc1 (single isomer, unassigned) | 218
O[C@@H]1CO[C@H](C(c2ccccc2)c2ccccc2)C[C@H]1NCc1ccccc1 | 2610
O[C@@H]1C[C@@H](C(c2ccccc2)c2ccccc2)OC[C@H]1NCc1ccccc1 | 600
OC1CC(C(c2ccccc2)c2ccccc2)OCC1NCc1ccccc1 (single isomer, unassigned) | 341
COc1ccc(CN[C@@H]2C[C@@H](C(c3ccccc3)c3ccccc3)OC[C@H]2O)cc1 | 822
OC1COC(C(c2ccccc2)c2ccccc2)CC1NCc1ccccc1 (single isomer, unassigned) | 962
COc1ccc(CNC2CC(C(c3ccccc3)c3ccccc3)OCC2O)cc1 (single isomer, unassigned) | 2670
OC1CC(C(c2ccccc2)c2ccccc2)OCC1NCc1ccc(F)cc1 (single isomer, unassigned) | 440
O[C@@H]1C[C@@H](C(c2ccccc2)c2ccccc2)OC[C@H]1NCc1ccc(F)cc1 | 169
COc1cc(CN[C@@H]2CO[C@H](C(c3ccccc3)c3ccccc3)C[C@H]2O)cc(OC)c1 | 135
O[C@@H]1C[C@@H](C(c2ccccc2)c2ccccc2)OC[C@H]1NCCc1ccc(F)cc1 | 427
COc1ccc(CN[C@@H]2CO[C@H](C(c3ccccc3)c3ccccc3)C[C@H]2O)c(OC)c1 | 710

Biological target: T3, Sodium-dependent serotonin transporter
Assay: Inhibition of rat brain Serotonin transporter uptake as [3H]5-HT accumulation

Compound | IC50 [nM]
OC1CC(C(c2ccccc2)c2ccccc2)OCC1NCCc1ccc(F)cc1 (single isomer, unassigned) | 2950
O[C@@H]1CO[C@H](C(c2ccccc2)c2ccccc2)C[C@H]1NCc1ccccc1 | 10600
O[C@@H]1C[C@@H](C(c2ccccc2)c2ccccc2)OC[C@H]1NCc1ccccc1 | 862
OC1CC(C(c2ccccc2)c2ccccc2)OCC1NCc1ccccc1 (single isomer, unassigned) | 6120
COc1ccc(CN[C@@H]2C[C@@H](C(c3ccccc3)c3ccccc3)OC[C@H]2O)cc1 | 1070
OC1COC(C(c2ccccc2)c2ccccc2)CC1NCc1ccccc1 (single isomer, unassigned) | 4420
COc1ccc(CNC2CC(C(c3ccccc3)c3ccccc3)OCC2O)cc1 (single isomer, unassigned) | 3810
OC1CC(C(c2ccccc2)c2ccccc2)OCC1NCc1ccc(F)cc1 (single isomer, unassigned) | 5560
O[C@@H]1C[C@@H](C(c2ccccc2)c2ccccc2)OC[C@H]1NCc1ccc(F)cc1 | 676
COc1cc(CN[C@@H]2CO[C@H](C(c3ccccc3)c3ccccc3)C[C@H]2O)cc(OC)c1 | 25.4
O[C@@H]1C[C@@H](C(c2ccccc2)c2ccccc2)OC[C@H]1NCCc1ccc(F)cc1 | 3570
COc1ccc(CN[C@@H]2CO[C@H](C(c3ccccc3)c3ccccc3)C[C@H]2O)c(OC)c1 | 24

Biological target: Monoamine transporters; Norepininephrine & dopamine (Rattus norvegicus) (UniProt P23977+Q9WTR4)
Assay: Ratio between Dopamine transporter and Norepinephrine transporter uptake
Assay type: protein assay

Compound | Ratio
OC1CC(C(c2ccccc2)c2ccccc2)OCC1NCCc1ccc(F)cc1 (single isomer, unassigned) | 2.3
O[C@@H]1CO[C@H](C(c2ccccc2)c2ccccc2)C[C@H]1NCc1ccccc1 | 6.6
COc1ccc(CN[C@@H]2C[C@@H](C(c3ccccc3)c3ccccc3)OC[C@H]2O)cc1 | 0.89
OC1COC(C(c2ccccc2)c2ccccc2)CC1NCc1ccccc1 (single isomer, unassigned) | 0.25
COc1ccc(CNC2CC(C(c3ccccc3)c3ccccc3)OCC2O)cc1 (single isomer, unassigned) | 1.2
OC1CC(C(c2ccccc2)c2ccccc2)OCC1NCc1ccc(F)cc1 (single isomer, unassigned) | 0.31
O[C@@H]1C[C@@H](C(c2ccccc2)c2ccccc2)OC[C@H]1NCc1ccc(F)cc1 | 10.2
COc1cc(CN[C@@H]2CO[C@H](C(c3ccccc3)c3ccccc3)C[C@H]2O)cc(OC)c1 | 0.99
O[C@@H]1C[C@@H](C(c2ccccc2)c2ccccc2)OC[C@H]1NCCc1ccc(F)cc1 | 0.78
COc1ccc(CN[C@@H]2CO[C@H](C(c3ccccc3)c3ccccc3)C[C@H]2O)c(OC)c1 | 5.6

Biological target: Monoamine transporters; Norepinephrine & serotonin (Rattus norvegicus) (UniProt P31652+Q9WTR4)
Assay: Ratio between Serotonin transporter and Norepinephrine transporter uptake
Assay type: protein assay

Compound | Ratio
OC1CC(C(c2ccccc2)c2ccccc2)OCC1NCCc1ccc(F)cc1 (single isomer, unassigned) | 37
O[C@@H]1CO[C@H](C(c2ccccc2)c2ccccc2)C[C@H]1NCc1ccccc1 | 32
COc1ccc(CN[C@@H]2C[C@@H](C(c3ccccc3)c3ccccc3)OC[C@H]2O)cc1 | 1.2
OC1COC(C(c2ccccc2)c2ccccc2)CC1NCc1ccccc1 (single isomer, unassigned) | 1.4
COc1ccc(CNC2CC(C(c3ccccc3)c3ccccc3)OCC2O)cc1 (single isomer, unassigned) | 2
OC1CC(C(c2ccccc2)c2ccccc2)OCC1NCc1ccc(F)cc1 (single isomer, unassigned) | 4.8
O[C@@H]1C[C@@H](C(c2ccccc2)c2ccccc2)OC[C@H]1NCc1ccc(F)cc1 | 50
COc1cc(CN[C@@H]2CO[C@H](C(c3ccccc3)c3ccccc3)C[C@H]2O)cc(OC)c1 | 0.2
O[C@@H]1C[C@@H](C(c2ccccc2)c2ccccc2)OC[C@H]1NCCc1ccc(F)cc1 | 7.9
COc1ccc(CN[C@@H]2CO[C@H](C(c3ccccc3)c3ccccc3)C[C@H]2O)c(OC)c1 | 0.22

Biological target: Monoamine transporters; serotonin & dopamine (Rattus norvegicus) (UniProt P31652+P23977)
Sequence (P23977 whole entry, looked up): as the sequence (P23977 whole entry) above
Sequence (P31652 whole entry, looked up): as the sequence (P31652 whole entry) above
Assay: Ratio between Dopamine transporter and Serotonin transporter uptake
Assay type: protein assay

Compound | Ratio
OC1CC(C(c2ccccc2)c2ccccc2)OCC1NCCc1ccc(F)cc1 (single isomer, unassigned) | 0.061
O[C@@H]1CO[C@H](C(c2ccccc2)c2ccccc2)C[C@H]1NCc1ccccc1 | 0.2
COc1ccc(CN[C@@H]2C[C@@H](C(c3ccccc3)c3ccccc3)OC[C@H]2O)cc1 | 0.77
OC1COC(C(c2ccccc2)c2ccccc2)CC1NCc1ccccc1 (single isomer, unassigned) | 0.18
COc1ccc(CNC2CC(C(c3ccccc3)c3ccccc3)OCC2O)cc1 (single isomer, unassigned) | 0.58
OC1CC(C(c2ccccc2)c2ccccc2)OCC1NCc1ccc(F)cc1 (single isomer, unassigned) | 0.065
O[C@@H]1C[C@@H](C(c2ccccc2)c2ccccc2)OC[C@H]1NCc1ccc(F)cc1 | 0.21
COc1cc(CN[C@@H]2CO[C@H](C(c3ccccc3)c3ccccc3)C[C@H]2O)cc(OC)c1 | 5.1
O[C@@H]1C[C@@H](C(c2ccccc2)c2ccccc2)OC[C@H]1NCCc1ccc(F)cc1 | 0.099
COc1ccc(CN[C@@H]2CO[C@H](C(c3ccccc3)c3ccccc3)C[C@H]2O)c(OC)c1 | 25

Biological target: T2, Sodium-dependent dopamine transporter
Assay: Inhibition of [3H]WIN-35428 binding to rat brain dopamine transporter

Compound | IC50 [nM]
OC1CC(C(c2ccccc2)c2ccccc2)OCC1NCCc1ccc(F)cc1 (single isomer, unassigned) | 443
O[C@@H]1CO[C@H](C(c2ccccc2)c2ccccc2)C[C@H]1NCc1ccccc1 | 4640
OC1CC(C(c2ccccc2)c2ccccc2)OCC1NCc1ccccc1 (single isomer, unassigned) | 596
COc1ccc(CN[C@@H]2C[C@@H](C(c3ccccc3)c3ccccc3)OC[C@H]2O)cc1 | 771
OC1COC(C(c2ccccc2)c2ccccc2)CC1NCc1ccccc1 (single isomer, unassigned) | 1250
COc1ccc(CNC2CC(C(c3ccccc3)c3ccccc3)OCC2O)cc1 (single isomer, unassigned) | 3750
OC1CC(C(c2ccccc2)c2ccccc2)OCC1NCc1ccc(F)cc1 (single isomer, unassigned) | 1030
O[C@@H]1C[C@@H](C(c2ccccc2)c2ccccc2)OC[C@H]1NCc1ccc(F)cc1 | 308
COc1cc(CN[C@@H]2CO[C@H](C(c3ccccc3)c3ccccc3)C[C@H]2O)cc(OC)c1 | 298
O[C@@H]1C[C@@H](C(c2ccccc2)c2ccccc2)OC[C@H]1NCCc1ccc(F)cc1 | 1050
COc1ccc(CN[C@@H]2CO[C@H](C(c3ccccc3)c3ccccc3)C[C@H]2O)c(OC)c1 | 1060
